Source: patent US20250041294A1, “Synergistic compositions for use in the treatment of cancer” (Sartar Therapeutics Oy, priority 2021, published 2025)
Read-outs that look alike come from different tables or passages of the source.

Legend:
Assay type in all cases: cell-based
GIST882 cell line = assay: High throughput drug sensitivity and resistance test (CellTiter-Glo, 72 hours); settings: drug combined with BAY2666605 (40 nM) minus drug alone
Procedure: High throughput drug sensitivity and resistance test. […] In addition, same compounds were investigated together with anagrelide hydrochloride (100 nM) treatment in the PDE3A low expressing cell lines SA4 and GOT3, and with BAY2666605 (40 nM) in all PDE3A-positive cell lines GIST882, SA4 and GOT3. […] A cell viability was measured after 72 hours using CellTiter-Glo Cell Viability assay (Promega Inc.) and PHERAstar FS plate reader (BMG Labtech). The data were normalized to negative (0.01% dimethyl sulfoxide only) and positive (100 μmol/L benzethonium chloride) controls.
(§1) A four-parameter logistic dose-response curves were estimated by using the Marquardt-Levenberg algorithm and Breeze analysis platform. Drug responses to the test compounds were measured using the drug sensitivity score (DSS). Drug synergy partners, which were common in investigated cell lines were identified as following: DSS value of a single agent was subtracted from the DSS value of anagrelide-drug combination in single cell lines. […] The analysis was repeated by using BAY2666605 as a PDE3A modulator.

[1] = test system: GIST882, GOT3 and SA4 cell lines; assay: High throughput drug sensitivity and resistance test, average over cell lines (BAY2666605 combination); settings: for Average DSS (aDSS): BAY2666605 combination, average of GIST882, SA4 and GOT3, aDSS higher than 3.0 = synergy
Procedure: (§2) Cell lines. PDE3A-positive (GIST882, SA4, and GOT3) and PDE3A-negative cell lines (93TT449, 94T778, LPS141, MLS17656-92, MLS402-91, and SW872) were cultured in RPMI Medium 1640 (Gibco) with 5-, 10- or 20% fetal bovine serum (FBS, gibco), 100 U/mL of penicillin, 100 […] and 0.03 mg/mL of L-glutamine (Pen Strep Glut, Gibco, 10378-016) in a humidified, 5% CO2 atmosphere at 37° C.
(§3) High throughput drug sensitivity and resistance test. A sensitivity and resistance of cancer cell lines to 528 compounds were investigated in 9 cell lines (GIST882, SA4, GOT3, 93TT449, 94T778, LPS141, MLS17656-92, MLS402-91, and SW872). In addition, same compounds were investigated together with anagrelide hydrochloride (100 nM) treatment in the PDE3A low expressing cell lines SA4 and GOT3, and with BAY2666605 (40 nM) in all PDE3A-positive cell lines GIST882, SA4 and GOT3. The compounds were dissolved in 100% dimethyl sulfoxide or water and plated in 10-fold dilutions covering a 10,000-fold concentration range on flat clear bottom 384-well microplates as described in detail earlier (Pulkka O P, et al 2019). A cell viability was measured after 72 hours using CellTiter-Glo Cell Viability assay (Promega Inc.) and PHERAstar FS plate reader (BMG Labtech). The data were normalized to negative (0.01% dimethyl sulfoxide only) and positive (100 μmol/L benzethonium chloride) controls.
as §1

SA4 cell line = assay: High throughput drug sensitivity and resistance test (CellTiter-Glo, 72 hours); settings: for SA4 cell line: DSS(combo (BAY2666605))-DSS(drug): drug combined with BAY2666605 (40 nM) minus drug alone
Procedure: as §2, §3, §1

GOT3 cell line = assay: as above; settings: for GOT3 cell line: DSS(combo (BAY2666605))-DSS(drug): drug combined with BAY2666605 (40 nM) minus drug alone
Procedure: as §2, §3, §1

GOT3 and SA4 cell lines = assay: High throughput drug sensitivity and resistance test, average over cell lines (anagrelide combination)
Procedure: as §2, §3, §1

[2] = with anagrelide (GOT3, SA4) or BAY2666605 (GIST882, GOT3, SA4)
[3] = drug combined with anagrelide hydrochloride (100 nM) minus drug alone, SA4
[4] = drug combined with anagrelide hydrochloride (100 nM) minus drug alone, GOT3
[5] = anagrelide combination, average of SA4 and GOT3, aDSS higher than 3.0 = synergy

SMILES	synergy in high-throughput screening (in words) [1, 2]	SA4 cell line: DSS(combo (anagrelide))-DSS(drug) (SA4 cell line; [3])	GOT3 cell line: DSS(combo (anagrelide))-DSS(drug) (GOT3 cell line; [4])	Average DSS (aDSS) (GOT3 and SA4 cell lines; [5])	further results
COc1ccc(C[C@H](NC(=O)[C@H](C)NC(=O)CN2CCOCC2)C(=O)N[C@@H](Cc2ccccc2)C(=O)C2(C)CO2)cc1 (stereo in doubt) [ONX-0914]	synergistic				GIST882 cell line: DSS(combo (BAY2666605))-DSS(drug) (GIST882 cell line): 8.4; Average DSS (aDSS) [1]: 4.6; SA4 cell line: DSS(combo (BAY2666605))-DSS(drug) (SA4 cell line; SA4): 4.6; GOT3 cell line: DSS(combo (BAY2666605))-DSS(drug) (GOT3 cell line; GOT3): 0.9
CC(C)[C@@H](CS(=O)(=O)C(C)C)N1C(=O)[C@@](C)(CC(=O)O)C[C@H](c2cccc(Cl)c2)[C@H]1c1ccc(Cl)cc1 [AMG-232]	synergistic	6.2	0	3.1	
CC(C)[C@H](C(=O)Nc1ccc(C(=O)NO)cc1)c1ccccc1 [AR-42]	synergistic	12.9	−0.8	6.05	
CN(C)CCCOc1ccc(-c2ccc3ncc4c(c3c2)n(C2CCOCC2)c(=O)n4C)cn1 [AZD0156]	synergistic				GIST882 cell line: DSS(combo (BAY2666605))-DSS(drug) (GIST882 cell line): 7.5; Average DSS (aDSS) [1]: 3.1; SA4 cell line: DSS(combo (BAY2666605))-DSS(drug) (SA4 cell line; SA4): 3; GOT3 cell line: DSS(combo (BAY2666605))-DSS(drug) (GOT3 cell line; GOT3): −1.2
CCN(CCO)CCCOc1ccc2c(Nc3cc(CC(=O)Nc4cccc(F)c4)[nH]n3)ncnc2c1 [AZD1152-HQPA]	synergistic	5.9	3.4	4.65	
N[C@@H]1CCCN(c2c(/C=C3\SC(=O)NC3=O)cccc2-c2ccccc2)C1 [AZD1208]	synergistic	7.1	0.3	3.7	
COc1ccc(-c2ccc3c(N4CCOC[C@@H]4C)nc(N4CCOC[C@@H]4C)nc3n2)cc1CO [AZD8055]	synergistic	5.9	1.5	3.7	
O=C1CN2Cc3c(ccc(Cl)c3Cl)N=C2N1 [Anagrelide, anagrelide]					DSS (drug sensitivity score) (SA4 cell line; Anagrelide alone, SA4): 15.4; IC50 (SA4 cell line; Anagrelide alone, SA4, cell viability 72 hours): 73.5 nM; DSS (drug sensitivity score) (GOT3 cell line; Anagrelide alone, GOT3): 9.2; IC50 (GOT3 cell line; Anagrelide alone, GOT3, cell viability 72 hours): 84.3 nM
C[C@@]1(C(=O)Nc2ccc(F)nc2)CCCN1c1nc(Nc2cc(C3CC3)n[nH]2)c2cccn2n1 [BMS-754807]	synergistic				GIST882 cell line: DSS(combo (BAY2666605))-DSS(drug) (GIST882 cell line): 0.7; Average DSS (aDSS) [1]: 4.2; SA4 cell line: DSS(combo (BAY2666605))-DSS(drug) (SA4 cell line; SA4): 7.5; GOT3 cell line: DSS(combo (BAY2666605))-DSS(drug) (GOT3 cell line; GOT3): 4.4
C=C(c1ccc(C(=O)O)cc1)c1cc2c(cc1C)C(C)(C)CCC2(C)C [Bexarotene, bexarotene]	synergistic				GIST882 cell line: DSS(combo (BAY2666605))-DSS(drug) (GIST882 cell line): 6.3; Average DSS (aDSS) [1]: 3.9; SA4 cell line: DSS(combo (BAY2666605))-DSS(drug) (SA4 cell line; SA4): 6.4; GOT3 cell line: DSS(combo (BAY2666605))-DSS(drug) (GOT3 cell line; GOT3): −1.1
CC(C)C[C@H](NC(=O)[C@H](Cc1ccccc1)NC(=O)c1cnccn1)B(O)O [Bortezomib, bortezomib]					GIST882 cell line: DSS(combo (BAY2666605))-DSS(drug) (GIST882 cell line): 1.7; Average DSS (aDSS) [1]: 7.8; SA4 cell line: DSS(combo (BAY2666605))-DSS(drug) (SA4 cell line; SA4): 11.2; GOT3 cell line: DSS(combo (BAY2666605))-DSS(drug) (GOT3 cell line; GOT3): 10.4
CO[C@H]1CC[C@H](N2C(=O)CNc3ncc(-c4ccc(C(C)(C)O)nc4)nc32)CC1 [CC-223]	synergistic	5.6	0.8	3.2	
COc1ccc(-c2nc(N3CCOCC3)c3sc(CN(C)c4ncc(C(=O)NO)cn4)cc3n2)cn1 [CUDC-907]	synergistic	10.8	0	5.4	
COc1c(OCCCN2CCOCC2)ccc2c1N=C(NC(=O)c1cnc(N)nc1)N1CCN=C21 [Copanlisib, copanlisib]	synergistic				GIST882 cell line: DSS(combo (BAY2666605))-DSS(drug) (GIST882 cell line): 6.8; Average DSS (aDSS) [1]: 4.5; SA4 cell line: DSS(combo (BAY2666605))-DSS(drug) (SA4 cell line; SA4): 8.1; GOT3 cell line: DSS(combo (BAY2666605))-DSS(drug) (GOT3 cell line; GOT3): −1.4
CC1(C)OCCn2c1nc1c(N3CCOCC3)nc(-c3cnc(N)nc3)nc12 [GDC-0084]	synergistic	3.9	2.3	3.1	
CC(C)Oc1ccc(C(=O)N[C@H](CNC(=O)CN(C)C)Cc2ccc(-c3cn4cccc([C@H](C)O)c4n3)cc2)cc1Cl [GSK923295]	synergistic	3.9	2.8	3.35	
Cn1cc(-c2cnn3c(N)c(Br)c([C@@H]4CCCNC4)nc23)cn1 [MK-8776]					synergy in high-throughput screening (in words) [1]: synergistic; SA4 cell line: DSS(combo (anagrelide))-DSS(drug) (SA4 cell line): 4.8; GOT3 cell line: DSS(combo (anagrelide))-DSS(drug) (GOT3 cell line): 1.6; Average DSS (aDSS) (GOT3 and SA4 cell lines): 3.2
CO[C@@H]1[C@H](N(C)C(=O)c2ccccc2)C[C@H]2O[C@]1(C)n1c3ccccc3c3c4c(c5c6ccccc6n2c5c31)C(=O)NC4 [Midostaurin, midostaurin]		5.1	2.3	3.7	
CNC(=O)c1nn(C)c2c1C(C)(C)Cc1cnc(Nc3ccc(N4CCN(C)CC4)cc3)nc1-2 [Milciclib, milciclib]	synergistic	3.9	3.6	3.75	
Nc1nccc(-c2c(-c3ccc(F)cc3)ncn2C2CCCCC2)n1 [PF-670462]	synergistic	7.1	0.2	3.65	
C/C=C1\NC(=O)[C@H]2CSSCC/C=C/[C@H](CC(=O)N[C@H](C(C)C)C(=O)N2)OC(=O)[C@H](C(C)C)NC1=O [Romidepsin, romidepsin]		6.3	1.4		
CN(C)C[C@@H]1CCn2cc(c3ccccc32)C2=C(C(=O)NC2=O)c2cn(c3ccccc23)CCO1 [Ruboxistaurin]	synergistic	4.8	1.8	3.3	
CC(C)(C)C[C@@H]1N[C@@H](C(=O)N[C@H]2CC[C@H](O)CC2)[C@H](c2cccc(Cl)c2F)[C@]12C(=O)Nc1cc(Cl)ccc12 [SAR405838]	synergistic	7.8	0.1	3.95	
Nc1nc2cc(-c3ccc4ncc(C(=O)N5CCOCC5)n4c3)ccc2o1 [Serabelisib, serabelisib]	synergistic	5.8	1.9	3.85	
Cn1ncc(Cl)c1-c1cc(C(=O)N[C@H](CN)Cc2ccc(F)c(F)c2)oc1Cl [Uprosertib, uprosertib]	synergistic	5.4	1.8	3.6	
CNC(=O)c1ccccc1Nc1cc(Nc2ccc(N3CCOCC3)cc2OC)ncc1C(F)(F)F [VS-4718]	synergistic	5.3	3.8	4.55	
